Legend:
CD-1 mice [1] = experiment: Intravenous injection study with multiple-time regression analysis after an acute rapamycin i.v. injection; settings: male CD-1 mice
Method: (§1) The blood glucose was measured via the tail vein (AlphaTrak2, Abbott Laboratories, Chicago, IL, USA). […] The radioactivity circulated for times between 1–10 min, after which the carotid artery was cut to collect blood. The mice were immediately decapitated and the whole brain was removed and weighed. The blood was centrifuged at 5400 g for 10 min and the amount of radioactivity in the serum (50 µL) and the whole brain was counted in a gamma counter (Wizard2, PerkinElmer, Waltham, MA, USA). Two separate cohorts of mice were combined in the final analyses. […] Naïve male mice were anesthetized as described.
(§2) The exposure time is calculated by the formula:(1) Exposure time=∫0tCptdt/Cpt where Cp(t) is the level of radioactivity (cpm) in the serum at time (t). The exposure time corrects for the clearance of peptide from the blood. […] The slope of the linearity measures the Ki and is reported with its standard error term. The y-intercept of the linearity measures the Vi, the initial volume of distribution in brain at t = 0 [11].

CD-1 mice [2] = experiment: Intravenous injection study with multiple-time regression analysis after chronic rapamycin treatment; settings: for Vi (125I-insulin vascular binding) / Ki (125I-insulin BBB transport): rapamycin 8 mg/kg IP daily for 2 weeks, i.v. tracer
Method: (§3) The vehicle was prepared by creating a 1.2% DMSO solution in 5% Tween 80, 5% PEG 400.
as §1, §2

CD-1 mice [3] = experiment: Transcardiac brain perfusion (absence of serum factors) after chronic rapamycin treatment; settings: rapamycin 8 mg/kg IP daily for 2 weeks
Method: as §3
Perfusate was collected throughout the study to determine the average cpm/µL of perfusate. After perfusion, the whole brain was weighed and the amount of radioactivity was counted in a gamma counter (Wizard2, PerkinElmer). The brain/perfusate ratios were calculated by dividing the cpm in a gram of brain by the cpm in a µL of perfusate to yield the units of µL/g.
as §2

CD-1 mice [4] = experiment: Body weight and fasting blood glucose after chronic rapamycin treatment; format: in vivo
Method: as §3, §1

CD-1 mice [5] = experiment: Measurement of hormone levels in serum and brain lysate (Bio-Plex Pro Mouse Diabetes Assay); format: in vivo; settings: 2 weeks rapamycin 8 mg/kg
Method: (§4) Following a 6 h fast, blood glucose was taken. The mice were anesthetized as described above, the thoracic cavity was opened, and blood was collected from the descending aorta. […] The brain vasculature was washed out by perfusing 20 mL of ice cold LR into the left ventricle of the heart. The brain was removed and split into the right and left hemispheres. The aorta was also removed. The blood was centrifuged at 5400 g for 10 min and the serum was collected. All the tissues were snap frozen in liquid nitrogen and stored at −80 °C until further processing.
(§5) The right hemisphere was crushed with a mortar and pestle in liquid nitrogen and approximately 100 mg of tissue was homogenized in radioimmunoprecipitation assay (RIPA) buffer (150 mM NaCl, 0.5% deoxycholic acid, 0.1% sodium dodecyl sulfate (SDS), 20 mM Tris HCl, and 2 mM ethylenediaminetetraacetic acid (EDTA)) plus freshly added 1/100 dilutions of a protease inhibitor cocktail (Sigma-Aldrich), 1mM sodium orthovanadate, and a phosphatase inhibitor (1 tablet PhosSTOP per 10 mL buffer) (Roche, Basel, Switzerland). The aortas were homogenized in the same lysis buffer. The samples were sonicated at 40% amplitude prior to centrifugation at 12,000× g for 10 min at 4 °C. The supernatants were collected and frozen at −80 °C. The protein was measured using the Pierce BCA Protein Assay Kit (Thermo Fisher Scientific, Rockford, IL, USA).
A panel of 8 metabolic hormones was measured in the brain lysate and serum using a Bio-Plex Pro Mouse Diabetes Assay (Bio-Rad Laboratories, Hercules, CA, USA): ghrelin, glucose-dependent insulinotropic peptide (GIP), glucagon-like peptide-1 (GLP-1), glucagon, insulin, leptin, plasminogen activator inhibitor-1 (PAI-1), and resistin. The serum was diluted 1:4 with the kit diluent. Twenty µg/µL protein lysate samples were measured from the right hemisphere. The samples were measured according to the manufacturer and read on a Bio-Plex 200 (Bio-Rad Laboratories).

aorta = experiment: Western immunoblotting of insulin signaling proteins in the aorta; format: in vivo, mice; settings: 2 weeks rapamycin 8 mg/kg
Method: as §4
as §5, with “USA). […]” for “USA).”

CD-1 mice [6] = experiment: Measurement of serum cytokines (Bio-Plex Pro Mouse Cytokine Assay); format: in vivo; settings: 2 weeks rapamycin 8 mg/kg
Method: as §4
A panel of 23 cytokines was measured in the brain protein lysate and serum using a mouse Bio-Plex Pro Mouse Cytokine Assay (Bio-Rad Laboratories): interleukin (IL)-1α; IL-1β; IL-2; IL-3; IL-4; IL-5; IL-6; IL-9; IL-10; IL-12(p40); IL-12(p70); IL-13; IL-17; eotaxin (CCL11); granulocyte colony-stimulating factor (G-CSF); granulocyte-macrophage colony-stimulating factor (GM-CSF); interferon (IFN)-γ; keratinocyte chemoattractant (KC) (CXCL1); monocyte chemoattractant protein (MCP)-1 (CCL2); macrophage inflammatory protein (MIP)-1α (CCL3); MIP-1β (CCL4); and regulated on activation, normal T cell expressed and secreted (RANTES; CCL5) and tumor necrosis factor (TNF)-α). The serum samples were diluted 1:4 with the kit sample diluent. The samples were measured according to the manufacturer and read on a Bio-Plex 200 (Bio-Rad Laboratories).

CD-1 mice [7] = experiment: Serum triglyceride levels after chronic rapamycin treatment; format: in vivo; settings: two-week rapamycin treatment 8 mg/kg IP daily; males and females; n = 4/group
[8] = following an 8 mg/kg body weight IP injection; cited from earlier work
humans = settings: 10 mg/day dose for 42 days as tolerated, patients with initial hyperlipidemic response; cited from earlier work
Excerpt: (§6) Triglycerides were one mechanism we hypothesized rapamycin could impact insulin BBB transport. […] A study in humans reported an increase in the serum triglyceride levels by approximately 47% follow ...

mice [9] = settings: cited from earlier work
Excerpt: as §6

mice [10] = settings: cited from earlier work; remark: listed apart in the source
Excerpt: We observed a decrease in body weight only in males.

[11] = female CD-1 mice, transcardiac perfusion

- Ki (unidirectional influx of 125I-insulin from blood to brain) (CD-1 mice [1]; rapamycin 400 ng i.v. 10 min before 125I-insulin i.v., brain/serum ratio corrected with 99mTc-albumin, 1-10 min, slope ± standard error, gamma counter): 0.541 ± 0.13 µL/g/min
- Vi (125I-insulin vascular binding) (CD-1 mice [1]; rapamycin 400 ng i.v. 10 min before 125I-insulin i.v., y-intercept of regression, p = 0.02 vs vehicle): 10.1 ± 1.3 µL/g
- rate of insulin BBB transport (Ki) (CD-1 mice [1]; rapamycin 400 ng i.v. 10 min before tracer, p = 0.63 vs vehicle): 0.54 ± 0.1 µL/g/min
- Vi (125I-insulin vascular binding) (CD-1 mice [2]; female CD-1 mice): 9.9 ± 2.9 µL/g
- Ki (125I-insulin BBB transport) (CD-1 mice [2]; female CD-1 mice, linear regression not significant (ns)): 0.73 ± 0.34 µL/g/min
- Vi (125I-insulin vascular binding) (CD-1 mice [2]; male CD-1 mice): 4.0 ± 1.0 µL/g
- Ki (125I-insulin BBB transport) (CD-1 mice [2]; male CD-1 mice, slope ± standard error, p = 0.055 vs vehicle): 1.32 ± 0.19 µL/g/min
- Ki (125I-insulin BBB transport, absence of serum factors) (CD-1 mice [3]; [11]): 1.89 ± 0.63 µL/g/min
- Vi (125I-insulin vascular binding, absence of serum factors) (CD-1 mice [3]; [11]): 8.3 ± 2.1 µL/g
- Vi (125I-insulin vascular binding, absence of serum factors) (CD-1 mice [3]; male CD-1 mice, transcardiac perfusion): 8.0 ± 1.7 µL/g
- Ki (125I-insulin BBB transport, absence of serum factors) (CD-1 mice [3]; male CD-1 mice, transcardiac perfusion 2 mL/min, 1-5 min, brain/perfusate ratio vs clock time): 1.35 ± 0.53 µL/g/min
SMILES: CO[C@H]1C[C@@H]2CC[C@@H](C)[C@@](O)(O2)C(=O)C(=O)N2CCCC[C@H]2C(=O)O[C@H]([C@H](C)C[C@@H]2CC[C@@H](O)[C@H](OC)C2)CC(=O)[C@H](C)/C=C(\C)[C@@H](O)[C@@H](OC)C(=O)[C@H](C)C[C@H](C)/C=C/C=C/C=C/1C [Rapamycin]
- vascular marker 99mTc-albumin (BBB integrity) (CD-1 mice [2]; two-week rapamycin treatment, data not shown): no effect
- body weight gain (CD-1 mice [4]; 2 weeks of rapamycin 8 mg/kg IP daily, males n = 24-34, females n = 18-19): impacted body weight gain in males only
- fasting blood glucose levels (CD-1 mice [4]; females, 2 weeks rapamycin 8 mg/kg IP daily, 6 h fast, p = 0.19): did not have the same increase
- mean fasting blood glucose levels (CD-1 mice [4]; males, 2 weeks rapamycin 8 mg/kg IP daily, 6 h fast, p < 0.001 vs vehicle (157 mg/dL), n = 12-16/group): 226 mg/dL
- serum GLP-1 levels (CD-1 mice [5]; 6 h fast, treatment p = 0.015, n = 4/group): significantly increased
- serum resistin levels (CD-1 mice [5]; males and females, 6 h fast, p < 0.0001, n = 4/group): significantly decreased
- ghrelin, GIP, glucagon, or leptin levels (CD-1 mice [5]; serum, 6 h fast, n = 4/group): no effect
- brain insulin levels (CD-1 mice [5]; whole brain lysate, treatment p = 0.034, post hoc p = 0.014, n = 3-4/group): significant differences in females only
- MAPK protein expression relative to β-actin (aorta; males and females, treatment p = 0.006, n = 3-4/group): significant increase
- phosphorylated Akt (pAkt Ser473) relative to total Akt (aorta; only in males, interaction p = 0.0918, n = 3-4/group): trend in decreased levels
- serum IL-2 levels (CD-1 mice [6]; 6 h fast, p = 0.009, n = 3/group): increased
- serum IL-17 levels (CD-1 mice [6]; 6 h fast, p = 0.023, n = 3/group): increased
- serum IL-3 levels (CD-1 mice [6]; 6 h fast, treatment p = 0.004, post hoc in males p = 0.007, n = 3/group): increased significantly
- serum TNF-α, RANTES, and GM-CSF levels (CD-1 mice [6]; not statistically significant (0.05 < p < 0.07)): trend towards an increase
- serum triglyceride levels (CD-1 mice [7]): did not elicit a significant change
- blood rapamycin levels [8]: 100 ng/mL
- increase in serum triglyceride levels (humans): approximately 47%
- increase in serum triglyceride levels (mice [9]; growth hormone receptor knockout male mice, 4 mg/kg every other day for 20 weeks): approximately 12%
- serum triglyceride levels (mice [9]; mice fed rapamycin orally): no differences were observed
- glucose tolerance (mice [10]; 2 weeks of daily injections of a fourfold lower concentration than the current study): impair glucose tolerance
- serum glucose levels (mice [10]; five weeks of daily rapamycin treatment, mice fasted overnight): increase

Reference: PMC8395935 (Medical Sciences, 2021)
